Biological target: nsp14 methyltransferase from SARS-CoV-2 (Severe acute respiratory syndrome coronavirus 2, UniProt P0DTD1)
Assay: Nsp14 MTase activity inhibition in vitro (EchoMS assay)
Assay type: biochemical
Settings: recombinant nsp14 protein expressed in E. coli; dose-response curve

Row | SMILES | IC50 [nM]
1 | Cc1noc(-c2ccccc2)c1CSC[C@H]1O[C@@H](n2cc(C#Cc3ccccc3)c3c(N)ncnc32)[C@H](O)[C@@H]1O [Compound 180, (2R,3R,4S,5S)-2-(4-Amino-5-(phenylethynyl)-7H-pyrrolo[2,3-d]pyrimidin-7-yl)-5-((((3-methyl-5-phenylisoxazol-4-yl)methyl)thio)methyl)tetrahydrofuran-3,4-diol] | 30 to 100
2 | Cc1noc(-c2ccc3c(c2)OCO3)c1CSC[C@H]1O[C@@H](n2ccc3c(N)ncnc32)[C@H](O)[C@@H]1O [Compound 96c, (2R,3R,4S,5S)-2-(4-Amino-7H-pyrrolo[2,3-d]pyrimidin-7-yl)-5-((((5-(benzo[d][1,3]dioxol-5-yl)-3-methylisoxazol-4-yl)methyl)thio)methyl)tetrahydrofuran-3,4-diol] | 10 to 30
3 | Cc1noc(-c2ccccc2)c1CSC[C@H]1O[C@@H](n2cc(-c3ccc4nc[nH]c4c3)c3c(N)ncnc32)[C@H](O)[C@@H]1O [Compound 151, (2R,3R,4S,5S)-2-(4-Amino-5-(1H-benzo[d]imidazol-6-yl)-7H-pyrrolo[2,3-d]pyrimidin-7-yl)-5-((((3-methyl-5-phenylisoxazol-4-yl)methyl)thio)methyl)tetrahydrofuran-3,4-diol] | 30 to 100
4 | Cc1noc(-c2ccccc2)c1CSC[C@H]1O[C@@H](n2cc(-c3ccc4ccccc4c3)c3c(N)ncnc32)[C@H](O)[C@@H]1O [Compound 148b, (2R,3R,4S,5S)-2-(4-Amino-5-(naphthalen-2-yl)-7H-pyrrolo[2,3-d]pyrimidin-7-yl)-5-((((3-methyl-5-phenylisoxazol-4-yl)methyl)thio)methyl)tetrahydrofuran-3,4-diol] | 100 to 500
5 | COc1ccc(-c2nc(C)c(CSC[C@H]3O[C@@H](n4ccc5c(N)ncnc54)[C@H](O)[C@@H]3O)c(-c3ccccc3)n2)cc1OC [Compound 119c, (2R,3R,4S,5S)-2-(4-Amino-7H-pyrrolo[2,3-d]pyrimidin-7-yl)-5-((((2-(3,4-dimethoxyphenyl)-4-methyl-6-phenylpyrimidin-5-yl)methyl)thio)methyl)tetrahydrofuran-3,4-diol] | 30 to 100
6 | COc1ccc(-c2cn([C@@H]3O[C@H](CSCc4c(C)noc4-c4ccccc4)[C@@H](O)[C@H]3O)c3ncnc(N)c23)cc1OC [Compound 147b] | 10 to 30
7 | Cc1ncc(-c2cn([C@@H]3O[C@H](CSCc4c(C)noc4-c4ccccc4)[C@@H](O)[C@H]3O)c3ncnc(N)c23)s1 [Compound 156, (2R,3R,4S,5S)-2-(4-Amino-5-(2-methylthiazol-5-yl)-7H-pyrrolo[2,3-d]pyrimidin-7-yl)-5-((((3-methyl-5-phenylisoxazol-4-yl)methyl)thio)methyl)tetrahydrofuran-3,4-diol] | 10 to 30
8 | Cc1nsc(-c2ccccc2)c1CSC[C@H]1O[C@@H](n2cc(I)c3c(N)ncnc32)[C@H](O)[C@@H]1O [Compound 245, (2R,3R,4S,5S)-2-(4-Amino-5-iodo-7H-pyrrolo[2,3-d]pyrimidin-7-yl)-5-((((3-methyl-5-phenylisothiazol-4-yl)methyl)thio)methyl)tetrahydrofuran-3,4-diol] | 30 to 100
9 | Cc1noc(-c2ccccc2)c1CSC[C@H]1O[C@@H](n2cc(C3CCCCC3)c3c(N)ncnc32)[C@H](O)[C@@H]1O [Compound 134b, (2R,3R,4S,5S)-2-(4-Amino-5-cyclohexyl-7H-pyrrolo[2,3-d]pyrimidin-7-yl)-5-((((3-methyl-5-phenylisoxazol-4-yl)methyl)thio)methyl)tetrahydrofuran-3,4-diol] | 100 to 500
10 | Cc1noc(-c2ccccc2)c1CSC[C@H]1O[C@@H](n2nc(C#Cc3cncnc3)c3c(N)ncnc32)[C@H](O)[C@@H]1O [Compound 218b] | 30 to 100
11 | Cc1ncnc(-c2ccccc2)c1CSC[C@H]1O[C@@H](n2cc(I)c3c(N)ncnc32)[C@H](O)[C@@H]1O [Compound 246, (2R,3R,4S,5S)-2-(4-Amino-5-iodo-7H-pyrrolo[2,3-d]pyrimidin-7-yl)-5-((((4-methyl-6-phenylpyrimidin-5-yl)methyl)thio)methyl)tetrahydrofuran-3,4-diol] | 10 to 30
12 | Cc1cc(C#N)cc(C)c1-c1cn([C@@H]2O[C@H](CSCc3c(C)noc3-c3ccccc3)[C@@H](O)[C@H]2O)c2ncnc(N)c12 [Compound 150, 4-(4-Amino-7-((2R,3R,4S,5S)-3,4-dihydroxy-5-((((3-methyl-5-phenylisoxazol-4-yl)methyl)thio)methyl)tetrahydrofuran-2-yl)-7H-pyrrolo[2,3-d]pyrimidin-5-yl)-3,5-dimethylbenzonitrile] | 10 to 30
13 | Cc1noc(-c2ccccc2)c1CSC[C@H]1O[C@@H](n2cc(C#Cc3cnc(N)nc3)c3c(N)ncnc32)[C@H](O)[C@@H]1O [Compound 174b, (2R,3R,4S,5S)-2-(4-Amino-5-((2-aminopyrimidin-5-yl)ethynyl)-7H-pyrrolo[2,3-d]pyrimidin-7-yl)-5-((((3-methyl-5-phenylisoxazol-4-yl)methyl)thio)methyl)tetrahydrofuran-3,4-diol] | 30 to 100
14 | Cc1noc(-c2ccccc2)c1CSC[C@H]1O[C@@H](n2cc(Cc3ccc4ccccc4c3)c3c(N)ncnc32)[C@H](O)[C@@H]1O [Compound 186b, (2R,3R,4S,5S)-2-(4-Amino-5-(naphthalen-2-ylmethyl)-7H-pyrrolo[2,3-d]pyrimidin-7-yl)-5-((((3-methyl-5-phenylisoxazol-4-yl)methyl)thio)methyl)tetrahydrofuran-3,4-diol] | 500 to 2000
15 | CCc1onc(-c2ccccc2)c1CSC[C@H]1O[C@@H](n2ccc3c(N)ncnc32)[C@H](O)[C@@H]1O [Compound 106c, (2R,3R,4S,5S)-2-(4-Amino-7H-pyrrolo[2,3-d]pyrimidin-7-yl)-5-((((5-ethyl-3-phenyllsoxazol-4-yl)methyl)thio)methyl)tetrahydrofuran-3,4-diol] | 100 to 500
16 | Cc1nccc(-c2ccccc2)c1CSC[C@H]1O[C@@H](n2ccc3c(N)ncnc32)[C@H](O)[C@@H]1O [Compound 50c, (2R,3R,4S,5S)-2-(4-Amino-7H-pyrrolo[2,3-d]pyrimidin-7-yl)-5-((((2-methyl-4-phenylpyridin-3-yl)methyl)thio)methyl)tetrahydrofuran-3,4-diol] | 100 to 500
17 | Cc1noc(-c2ccccc2)c1CSC[C@H]1O[C@@H](n2cc(C#Cc3ccnnc3)c3c(N)ncnc32)[C@H](O)[C@@H]1O [Compound 173b] | 10 to 30
18 | Nc1ncnc2c1ccn2[C@@H]1O[C@H](CSCc2c(-c3ccccc3)noc2C2CC2)[C@@H](O)[C@H]1O [Compound 108c, (2R,3R,4S,5S)-2-(4-Amino-7H-pyrrolo[2,3-d]pyrimidin-7-yl)-5-((((5-cyclopropyl-3-phenylisoxazol-4-yl)methyl)thio)methyl)tetrahydrofuran-3,4-diol] | 100 to 500
19 | CC(C)c1onc(-c2ccccc2)c1CSC[C@H]1O[C@@H](n2ccc3c(N)ncnc32)[C@H](O)[C@@H]1O [Compound 107c, (2R,3R,4S,5S)-2-(4-Amino-7H-pyrrolo[2,3-d]pyrimidin-7-yl)-5-((((5-isopropyl-3-phenylisoxazol-4-yl)methyl)thio)methyl)tetrahydrofuran-3,4-diol] | 500 to 2000
20 | Cc1ncnc(-c2ccccc2)c1CSC[C@H]1O[C@@H](n2ccc3c(N)ncnc32)[C@H](O)[C@@H]1O [Compound 56c, (2R,3R,4S,5S)-2-(4-Amino-7H-pyrrolo[2,3-d]pyrimidin-7-yl)-5-((((4-methyl-6-phenylpyrimidin-5-yl)methyl)thio)methyl)tetrahydrofuran-3,4-diol] | 100 to 500
21 | C#Cc1cn([C@@H]2O[C@H](CSCc3c(C)noc3-c3ccccc3)[C@@H](O)[C@H]2O)c2ncnc(N)c12 [Compound 140b, (2R,3R,4S,5S)-2-(4-Amino-5-ethynyl-7H-pyrrolo[2,3-d]pyrimidin-7-yl)-5-((((3-methyl-5-phenylisoxazol-4-yl)methyl)thio)methyl)tetrahydrofuran-3,4-diol] | 30 to 100
22 | Cc1ncn(-c2ccccc2)c1CSC[C@H]1O[C@@H](n2ccc3c(N)ncnc32)[C@H](O)[C@@H]1O [Compound 61c, (2R,3R,4S,5S)-2-(4-Amino-7H-pyrrolo[2,3-d]pyrimidin-7-yl)-5-((((4-methyl-1-phenyl-1H-imidazol-5-yl)methyl)thio)methyl)tetrahydrofuran-3,4-diol] | 100 to 500
23 | Cc1nsc(-c2ccccc2)c1CSC[C@H]1O[C@@H](n2ccc3c(N)ncnc32)[C@H](O)[C@@H]1O [Compound 54c, (2R,3R,4S,5S)-2-(4-Amino-7H-pyrrolo[2,3-d]pyrimidin-7-yl)-5-((((3-methyl-5-phenylisothiazol-4-yl)methyl)thio)methyl)tetrahydrofuran-3,4-diol] | 30 to 100
24 | Cc1noc(-c2ccccc2)c1CSC[C@H]1O[C@@H](n2cc(CCCC#N)c3c(N)ncnc32)[C@H](O)[C@@H]1O [Compound 137b, 4-(4-Amino-7-((2R,3R,4S,5S)-3,4-dihydroxy-5-((((3-methyl-5-phenylisoxazol-4-yl)methyl)thio)methyl)tetrahydrofuran-2-yl)-7H-pyrrolo[2,3-d]pyrimidin-5-yl)butanenitrile] | 10 to 30
25 | Cc1ccc(-c2onc(C)c2CSC[C@H]2O[C@@H](n3cc(C#Cc4cncnc4)c4c(N)ncnc43)[C@H](O)[C@@H]2O)cc1C [Compound 242c, (2R,3R,4S,5S)-2-(4-Amino-5-(pyrimidin-5-ylethynyl)-7H-pyrrolo[2,3-d]pyrimidin-7-yl)-5-((((5-(3,4-dimethylphenyl)-3-methylisoxazol-4-yl)methyl)thio)methyl)tetrahydrofuran-3,4-diol] | 10 to 30
26 | Cc1ncnc(-c2ccccc2)c1CSC[C@H]1O[C@@H](n2cc(-c3ccc(C#N)cc3)c3c(N)ncnc32)[C@H](O)[C@@H]1O [Compound 232b, 4-(4-Amino-7-((2R,3R,4S,5S)-3,4-dihydroxy-5-((((4-methyl-6-phenylpyrimidin-5-yl)methyl)thio)methyl)tetrahydrofuran-2-yl)-7H-pyrrolo[2,3-d]pyrimidin-5-yl)benzonitrile] | 30 to 100
27 | Cc1snc(-c2ccccc2)c1CSC[C@H]1O[C@@H](n2ccc3c(N)ncnc32)[C@H](O)[C@@H]1O [Compound 59c, (2R,3R,4S,5S)-2-(4-Amino-7H-pyrrolo[2,3-d]pyrimidin-7-yl)-5-((((5-methyl-3-phenylisothiazol-4-yl)methyl)thio)methyl)tetrahydrofuran-3,4-diol] | 30 to 100
